Test results as given in US20260193258A1, “AGENT FOR PROMOTING PHOSPHORYLATION OF eIF2a” (ER Stress Research Institute, Inc., priority 2019, published 2026).

What was measured:
human topoisomerase II = assay: Human topoisomerase II DNA relaxation assay (ProFoldin kit); type: biochemical; conditions: 5 μL of evaluation sample solution (100 μM), fluorescence 485/535 nm, FIG. 4
Method: (§1) • Evaluation compound: Compound No. 1 of the present invention was used, and […] thereof was dissolved in 20 μL of DMSO to prepare a 20 mM solution. • Camptothecin: (FUJIFILM Wako Pure Chemical Corporation) 100 mg was dissolved in 57.4 mL of DMSO to prepare a 5 mM solution. • Etoposide: (FUJIFILM Wako Pure Chemical Corporation) 25 mg was dissolved in 424.8 μL of DMSO to prepare a 100 mM solution. • Human topoisomerase I/DNA relaxation assay kit […] (Manufactured by ProFoldin) • Human topoisomerase II/DNA relaxation assay kit HD[…] (Manufactured by ProFoldin) Measurement was performed in accordance with an instruction manual of ProFoldin. […] After the reaction, centrifugation was performed at 1,300 rpm for 30 seconds, and the reaction liquid was poured into a spin-column. The spin-column was rotated at 1,300 rpm for 2 minutes, and the liquid that had flowed out of the column was poured into a 96-well black plate. The liquid that had flowed out was subjected to a reaction by adding a fluorescent dye solution (up to 150 μL). The intensity of fluorescence excited with light at 485 nm was measured at 535 nm.

human topoisomerase I = molecular target: T1, human topoisomerase I (Homo sapiens, UniProt P11387); assay: Human topoisomerase I DNA relaxation assay (ProFoldin kit); type: biochemical; conditions: 5 μL of evaluation sample solution (100 μM), fluorescence 485/535 nm, FIG. 4
T1 construct: purchased ProFoldin HRA100KE
T1 sequence (P11387 1-765): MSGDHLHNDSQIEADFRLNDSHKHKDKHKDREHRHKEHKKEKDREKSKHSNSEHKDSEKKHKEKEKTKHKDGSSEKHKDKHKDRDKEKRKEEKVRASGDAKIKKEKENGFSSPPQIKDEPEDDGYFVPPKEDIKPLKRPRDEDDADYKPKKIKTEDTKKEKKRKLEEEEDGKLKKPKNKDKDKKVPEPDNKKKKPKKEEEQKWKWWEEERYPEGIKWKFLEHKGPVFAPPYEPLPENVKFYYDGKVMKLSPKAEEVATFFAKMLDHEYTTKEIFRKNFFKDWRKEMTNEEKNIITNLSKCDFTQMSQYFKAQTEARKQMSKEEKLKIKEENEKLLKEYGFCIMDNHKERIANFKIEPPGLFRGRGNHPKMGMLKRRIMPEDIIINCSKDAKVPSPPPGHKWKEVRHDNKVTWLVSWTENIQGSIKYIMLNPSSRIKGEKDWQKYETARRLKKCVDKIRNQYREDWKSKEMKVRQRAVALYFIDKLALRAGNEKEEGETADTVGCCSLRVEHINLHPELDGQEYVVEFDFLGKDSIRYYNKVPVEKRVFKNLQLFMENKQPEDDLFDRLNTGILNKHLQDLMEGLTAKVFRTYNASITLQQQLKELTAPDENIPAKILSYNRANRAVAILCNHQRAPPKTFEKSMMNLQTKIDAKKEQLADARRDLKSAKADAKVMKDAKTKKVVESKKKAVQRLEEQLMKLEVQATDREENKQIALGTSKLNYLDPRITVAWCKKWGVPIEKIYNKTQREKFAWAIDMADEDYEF
Method: as §1

eIF2α = eIF2α phosphorylation-promoting activity (western blotting of 293A cell lysates); type: cell-based; conditions: 293A cells, 16 hours at 37° C., Compound No. 1 at 5 μM, halofuginone at 50 nM, thapsigargin at 200 nM, FIG. 3
Method: • Host cells: 293A cells • Evaluation compound: Compound No. 1 of the present invention was used, and […] thereof was dissolved in 20 μL of DMSO to prepare a 20 mM solution. • Thapsigargin: (Cayman Chemical Company)
10 mg was dissolved in 76.8 mL of DMSO to prepare a 200 μM solution. • Halofuginon: (Cayman Chemical Company)
5 mg was dissolved in 554.2 μL of DMSO to prepare a 20 mM solution.
The above-mentioned 293A cells were seeded in a 96-well plate at 5×10^5 cells/well, and were cultured overnight in a DMEM solution of 10% fetal bovine serum (FBS). The next day, the medium was changed to a DMEM solution of 10% fetal bovine serum (FBS) containing Compound No. 1 at 5 μM, halofuginone at 50 nM, or thapsigargin at 200 nM, and the cells were cultured at 37° C. for 16 hours. After the cells had been washed with a PBS buffer, the cells were lysed with a RIPA buffer to extract proteins, and the proteins were separated according to size by an electrophoresis method of SDS-PAGE. The expression amount of an endoplasmic reticulum stress marker was measured by a western blotting method.

mouse naive CD4+ T cells = assay: Th17 cell differentiation-suppressing activity (flow cytometry); type: cell-based; conditions: Compound No. 1 at 5 μM, halofuginone at 50 nM, 5 days of differentiation culture, FIG. 5
Method: Evaluation compound: Compound No. 1 of the present invention was used, and […] thereof was dissolved in 20 μL of DMSO to prepare a 20 mM solution. • Halofuginon: (Cayman Chemical Company)
5 mg was dissolved in 554.2 μL of DMSO to prepare a 20 mM solution. • Th17 cell inducer: A Th17 cell differentiation induction kit containing IL-6 and TGFβ1 as main components (CellXVivo Mouse Th17 Cell Differentiation Kit: R&D Systems) • Mouse helper T cell differentiation induction kit CDK017 (Techne Corporation)
Measurement was performed in accordance with an instruction manual of Techne Corporation. First, a cell culture plate was coated with an anti-hamster CD3 antibody. Mouse spleen cells were isolated into single cells, and mouse naive CD4^+ T cells were isolated using a mouse naive CD4^+ T cell isolation kit (MagCellect). The number of cells was counted. The isolated mouse naive CD4^+ T cells were dispersed in a mouse Th17 differentiation medium at 1×10^6 cells/mL. Compound No. 1 and halofuginone were added to the mouse Th17 differentiation medium at 5 μM and 50 nM, respectively. Next, the medium having the cells dispersed therein was added to the plate coated with the anti-hamster CD3 antibody, and humidified culture was continued for 3 days at 37° C. in the presence of 5% CO2. On the 3rd day, the medium was refreshed by adding an equal amount of the mouse Th17 differentiation medium without removing the original culture medium. Humidified culture was continued for 2 days at 37° C. in the presence of 5% CO2. After the 5 days of differentiation culture, the differentiated mouse Th17 cells were subjected to flow cytometry to analyze the expression of cytokines, and the number of cells differentiated into Th17 cells was determined.

Molecule | topoisomerase-inhibiting activity, human topoisomerase II (human topoisomerase II) | topoisomerase-inhibiting activity, human topoisomerase I (human topoisomerase I) | eIF2α phosphorylation-promoting effect (phosphorylated eIF2α expression amount) (eIF2α) | suppression of differentiation from mouse naive CD4+ T cells into Th17 cells (mouse naive CD4+ T cells) | further results
1-(2-chloro-5-methylphenyl)-4-oxo-7-(4-pyridyl)-naphthyridine [Compound No. 1] | did not show topoisomerase-inhibiting activity | did not show topoisomerase-inhibiting activity | had an eIF2α phosphorylation-promoting effect | remarkably suppressed differentiation | topoisomerase-inhibiting activity, human topoisomerase II (human topoisomerase II; listed as No. 1): free of topoisomerase-inhibiting activity; topoisomerase-inhibiting activity, human topoisomerase I (human topoisomerase I; listed as No. 1): free of topoisomerase-inhibiting activity; eIF2α phosphorylation-promoting effect (phosphorylated eIF2α expression amount) (eIF2α; listed as No. 1): eIF2α phosphorylation-promoting effect; suppression of differentiation from mouse naive CD4+ T cells into Th17 cells (mouse naive CD4+ T cells; listed as No. 1): has Th17 cell differentiation-suppressing activity
CC[C@@]1(O)C(=O)OCc2c1cc1n(c2=O)Cc2cc3ccccc3nc2-1 [camptothecin, reference compound] |  | remarkably reduced topoisomerase I activity |  |  | 
COc1cc([C@@H]2c3cc4c(cc3[C@@H](O[C@@H]3O[C@@H]5CO[C@@H](C)O[C@H]5[C@H](O)[C@H]3O)[C@H]3COC(=O)[C@H]23)OCO4)cc(OC)c1O [etoposide, reference compound] | remarkably reduced topoisomerase II activity |  |  |  | 
O=C(CC1NCCCC1O)Cn1cnc2cc(Br)c(Cl)cc2c1=O (stereo not shown) [halofuginone, reference compound] |  |  | eIF2α phosphorylation-promoting effect | capable of inhibiting the induction of differentiation into Th17 cells | 
C/C=C(/C)C(=O)O[C@H]1C(C)=C2[C@H]([C@@H]1OC(=O)CCCCCCC)[C@@](C)(OC(C)=O)C[C@H](OC(=O)CCC)[C@@]1(O)[C@H]2OC(=O)[C@@]1(C)O [thapsigargin, reference compound] |  |  | eIF2α phosphorylation-promoting effect |  | 
